PMC7156458, “Synthetic biology based construction of biological activity-related library of fungal decalin-containing diterpenoid pyrones” (Nature Communications, 2020)
Where two headings read alike, the source gives them in different places.

Tests used:
[1] = test system: MCF-7 cells; test: cell cytotoxic effects against MCF-7 cells (72 h), A490; type: cell-based, human; details: MCF-7, 72 h
[2] = cytotoxicity in Drosophila DL1 cells; type: cell-based; details: Drosophila, DL1 cells (embryonic macrophage-derived), DL1 cells
Procedure: (§1) We screened the DDPs on the Drosophila assay system for cytotoxicity, inhibitory activity of innate immune signalling and insecticidal activity. The cytotoxicity of the DDPs was evaluated using two cell lines, embryonic macrophage-derived DL1 cells[58]–[60] and larval blood cell-derived l(2)mbn cells, and their IC50 values are listed in Supplementary Table 23.

[3] = test system: DL1 cells; test: cytotoxicity in Drosophila DL1 cells; type: cell-based; details: DL1 cells; for IC50: Drosophila melanogaster, cytotoxicity
Procedure: as §1

[4] = cytotoxicity in Drosophila l(2)mbn cells; type: cell-based; details: Drosophila, l(2)mbn cells (larval blood cell-derived)
Procedure: as §1

[5] = test system: l(2)mbn cells; test: cytotoxicity in Drosophila l(2)mbn cells; type: cell-based; details: for Luminescence Raw1: replicate 1; for Luminescence Raw2: replicate 2; for IC50: Drosophila melanogaster, cytotoxicity
Procedure: as §1

[6] = test system: human immunodeficiency virus-1 (HIV-1); test: anti-HIV MAGI assay; type: cell-based; details: Human immunodeficiency virus 1, MAGI, anti-HIV
Source text: We examined the inhibitory activities of DDPs against various species of bacteria (both gram-negative and gram-positive bacteria), fungi and viruses. […] In contrast, preliminary screening of the DDPs for anti-viral agents with hepatitis B virus (HBV), measles virus (MV), Epstein-Barr virus (EBV), herpes simplex virus (HSV) and human immunodeficiency virus-1 (HIV-1) indicated their selective inhibition of HIV.

[7] = test system: MAGI cells; test: cytotoxicity in the anti-HIV assay (CC50); type: cell-based; details: single determinations
[8] = replicate 1, relative to DMSO 1%, read-out: % viability, viability 1
[9] = replicate 2, relative to DMSO 1%, read-out: % viability, viability 2
[10] = average of two replicates, read-out: IC50 Average
[11] = replicate 1, read-out: IC50 (1)
[12] = replicate 2, read-out: IC50 (2)

C=C1CCC2C(C)(CCC=C(C)C)C(O)CCC2(C)C1Cc1c(OC)oc(C)c(C(=O)OC)c1=O (centres unmarked) [Compound 14]
viability at 0.1 µM ([1]; Homo sapiens, MCF7, 72 h, 0.1 µM (DMSO 0.002%), read-out: A490 (control =1) ave): 74.8%
viability at 1 µM ([1]; Homo sapiens, MCF7, 72 h, 1 µM (DMSO 0.02%), read-out: A490 (control =1) ave): 75.6%
viability at 10 µM ([1]; Homo sapiens, MCF7, 72 h, 10 µM (DMSO 0.2%), read-out: A490 (control =1) ave): 19.7%
A490 ave ([1]; 0.1 µM (DMSO 0.002%), control 1.064): 0.796
A490 ave ([1]; 1 µM (DMSO 0.02%), control 1.104): 0.834
A490 ave ([1]; 10 µM (DMSO 0.2%), control 1.049): 0.207
viability at 0.04 µM [2, 8]: 109%
viability at 0.04 µM [2, 9]: 115%
viability at 0.2 µM [2, 8]: 94.8%
viability at 0.2 µM [2, 9]: 82.2%
viability at 1 µM [2, 8]: 10.1%
viability at 1 µM [2, 9]: 8.02%
viability at 4 µM [2, 8]: 5.72%
viability at 4 µM [2, 9]: 6.14%
viability at 10 µM [2, 8]: 6.46%
viability at 10 µM [2, 9]: 5.9%
viability at 20 µM [2, 8]: 5.02%
viability at 20 µM [2, 9]: 4.22%
Luminescence Raw1 ([3]; 0.04 µM, replicate 1): 2252387
Luminescence Raw2 ([3]; 0.04 µM, replicate 2): 2365278
Luminescence Raw1 ([3]; 0.2 µM, replicate 1): 1952676
Luminescence Raw2 ([3]; 0.2 µM, replicate 2): 1693730
Luminescence Raw1 ([3]; 1 µM, replicate 1): 208403
Luminescence Raw2 ([3]; 1 µM, replicate 2): 165136
Luminescence Raw1 ([3]; 4 µM, replicate 1): 117902
Luminescence Raw2 ([3]; 4 µM, replicate 2): 126556
Luminescence Raw1 ([3]; 10 µM, replicate 1): 133046
Luminescence Raw2 ([3]; 10 µM, replicate 2): 121508
Luminescence Raw1 ([3]; 20 µM, replicate 1): 103480
Luminescence Raw2 ([3]; 20 µM, replicate 2): 86894
IC50 [3, 10]: 438 nM
IC50 ([3]; average±SEM, read-out: IC50): 440 ± 60 nM
IC50 [3, 11]: 502 nM
IC50 [3, 12]: 374 nM
viability at 0.04 µM [4, 8]: 137%
viability at 0.04 µM [4, 9]: 114%
viability at 0.2 µM [4, 8]: 136%
viability at 0.2 µM [4, 9]: 147%
viability at 1 µM [4, 8]: 131%
viability at 1 µM [4, 9]: 146%
viability at 4 µM [4, 8]: 18.5%
viability at 4 µM [4, 9]: 16%
viability at 10 µM [4, 8]: 10.1%
viability at 10 µM [4, 9]: 9.05%
viability at 20 µM [4, 8]: 7.49%
viability at 20 µM [4, 9]: 6.87%
Luminescence Raw1 ([5]; 0.04 µM): 3506221
Luminescence Raw2 ([5]; 0.04 µM): 2917163
Luminescence Raw1 ([5]; 0.2 µM): 3483495
Luminescence Raw2 ([5]; 0.2 µM): 3765235
Luminescence Raw1 ([5]; 1 µM): 3358321
Luminescence Raw2 ([5]; 1 µM): 3748640
Luminescence Raw1 ([5]; 4 µM): 473811
Luminescence Raw2 ([5]; 4 µM): 410710
Luminescence Raw1 ([5]; 10 µM): 260351
Luminescence Raw2 ([5]; 10 µM): 232227
Luminescence Raw1 ([5]; 20 µM): 192204
Luminescence Raw2 ([5]; 20 µM): 176340
IC50 [5, 10]: 3740 nM
IC50 ([5]; average±SEM, read-out: IC50): 3740 ± 140 nM
IC50 [5, 11]: 3600 nM
IC50 [5, 12]: 3880 nM
EC50 ([6]; MAGI assay, read-out: EC50): < 200 nM
EC50 ([6]; average of numeric determinations, read-out: Avg. EC50): 45.7 nM
Cytotoxicity [7]: >10 µM
